This assay concerns the target factor Xa (Homo sapiens, UniProt P00742). Description: Factor Xa assay (Test 1a), chromogenic. As to conditions: in vitro factor Xa assay Test 1a; human factor Xa 0.5 nM, substrate S-2765 140 μM, 25° C.; Ki from IC50 corrected for substrate competition. Set-up: purchased Enzyme Research Laboratories, Inc; South Bend, Ind. Format: biochemical. The source says: The ability of a compound of formula (I) to inhibit factor Xa, thrombin, plasmin, elastase, and trypsin may be assessed by determining the concentration of compound of formula (I) that inhibits enzyme activity by 50% (IC50). Purified enzymes are used in chromogenic assays. To determine the inhibition constant, the IC50 value is corrected for competition with substrate using the formula:
Ki=IC50×(1/{1+((substrate concentration)/substrate Km)})
where Km is the Michaelis-Menten constant. Y. -C. Chen and W. H. Prusoff, Biochem. Pharmacol. 22: […] (1973), which is incorporated herein by reference.
TBS-PEG buffer (50 mM Tris-Cl, pH 7.8, 200 mM NaCl, 0.05% (w/v) PEG-8000, 0.02% (w/v) NaN3) is used for this assay. The IC50 is determined by combining in appropriate wells of a Costar half-area microtiter plate 25 μl human factor Xa (Enzyme Research Laboratories, Inc.; South Bend, Ind.) in TBS-PEG; 40 μl 10% (v/v) DMSO in TBS-PEG (uninhibited control) or various concentrations of the compound to be tested diluted in 10% (v/v) DMSO in TBS-PEG; and substrate S-2765 (N-benzyloxycarbonyl-D-Arg-Gly-L-Arg-p-nitroanilide; Kabi Pharmacia, Inc.; Franklin Ohio) in TBS-PEG.
The assays are performed by pre-incubating the compound of formula (I) plus enzyme for 10 min, then the assay is initiated by adding substrate to obtain a final volume of 100 μl. The initial velocity of chromogenic substrate hydrolysis is measured by the change in absorbance at 405 nm using a Bio-tek Instruments kinetic plate reader (Ceres UV900HDi) at 25° C. during the linear portion of the time course (usually 1.5 min after addition of substrate). The concentration of inhibitor that causes a 50% decrease in the rate of substrate hydrolysis is predicted by linear regression after plotting the relative rates of hydrolysis (compared to the uninhibited control) versus the log of the compound of formula (I) concentration. The enzyme concentration is 0.5 nM and substrate concentration is 140 μM.

Where a name gives a salt, the structure may show the parent alone.

The values that follow come from patent publication US6759420B1, “Arylalkanoyl derivatives, processes for their preparation, their use and pharmaceutical compositions containing them” (Aventis Pharma Deutschland GmbH, priority 1999, dated 2004).

Sequence of factor Xa (P00742 235-488 limits assumed): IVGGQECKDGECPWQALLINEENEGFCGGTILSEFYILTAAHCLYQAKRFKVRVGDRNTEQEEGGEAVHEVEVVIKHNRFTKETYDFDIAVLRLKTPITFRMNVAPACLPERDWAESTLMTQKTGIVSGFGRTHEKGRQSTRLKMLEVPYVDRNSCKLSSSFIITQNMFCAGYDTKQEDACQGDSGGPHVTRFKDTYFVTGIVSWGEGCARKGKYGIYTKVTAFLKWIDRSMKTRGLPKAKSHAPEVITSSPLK
Sequence of factor Xa (P00742 41-179 limits assumed): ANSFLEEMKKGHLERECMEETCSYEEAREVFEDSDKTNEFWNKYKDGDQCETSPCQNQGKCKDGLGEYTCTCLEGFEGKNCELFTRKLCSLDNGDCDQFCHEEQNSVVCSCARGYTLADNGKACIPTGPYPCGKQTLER

With `Cc1cccc(C(Cc2ccc(N)cc2)C(=O)NC(C(=O)NCC2CCN(C(=N)N)CC2)C2CCCCC2)c1` (single isomer, unassigned; less polar) [Example 167], the affinity, expressed as Ki, was 74 nM. Under `N=C(N)c1ccc(CNC(=O)[C@@H](NC(=O)C(Cc2ccc(CN)cc2)C2CCCCC2)C2CCCCC2)cc1` (mixture of isomers) [Example 138, 3-(4-Aminomethyl-phenyl)-N-[(S)-(4-carbamimidoyl-benzyl-carbamoyl)-cyclohexyl-methyl]-2-(R,S)-cyclohexyl-propionamide acetic acid salt] stands 55 nM. `CN(Cc1ccccc1)C(=O)[C@H](CCCNC(=N)N)NC(=O)C(NC(=O)C(Cc1ccc(C(=N)N)cc1)C1CCCCC1)C1CCCCC1` (single isomer, unassigned; less polar) [Example 183]: the affinity corresponds to a Ki of 25 nM. Under `CC(C)OC(=O)[C@H](CCCNC(=N)N)NC(=O)[C@@H](NC(=O)C(Cc1ccc(C(=N)N)cc1)c1cccc(Br)c1)C1CCCCC1` (single isomer, unassigned; more polar) [Example 243] stands 25 nM. Take `N=C(N)NCCCC(NC(=O)C(NC(=O)C(Cc1ccc(C(=N)N)cc1)C1CCCCC1)C1CCCCC1)C(=O)O` (single isomer, unassigned; less polar) [Example 6]: the Ki (in general, a dissociation constant, usually derived from enzyme kinetics or from competition with a known ligand) was 5 nM. Under `N=C(N)NCCC[C@H](NC(=O)C(NC(=O)C(Cc1ccc(C(=N)N)cc1)C1CCCCC1)C1CCCCC1)C(=O)NC(c1ccccc1)c1ccccc1` (stereo partly drawn) [Example 195, 2-(S)-2-[3-(4-Carbamimidoyl-phenyl)-2-cyclohexyl-propionylamino]-2-cyclohexyl-acetylamino}-5-guanidino-pentanoic acid benzhydryl-amide trifluoroacetic acid salt] stands 32 nM; under `CC(C)OC(=O)[C@H](CCCNC(=N)N)NC(=O)[C@@H](NC(=O)C(Cc1ccc(C(=N)N)cc1)C1CCCCC1)C1CCCCC1` (mixture of isomers) [Example 181, 2-(S)-{2-[3-(4-Carbamimidoyl-phenyl)-2-(R,S)-cyclohexyl-propionylamino]-2-(S)-cyclohexyl-acetylamino}-5-guanidino-pentanoic acid isopropyl ester hydrochloric acid salt], 13 nM.

Consider `N=C(N)c1ccc(CC(C(=O)N[C@H](C(=O)NCC2CCN(C(=N)N)CC2)C2CCCCC2)c2ccccc2OC(F)(F)F)cc1` (single isomer, unassigned; less polar) [Example 233], for which the Ki is 33 nM. Regarding `N=C(N)NCCC[C@H](NC(=O)[C@@H](NC(=O)C(Cc1ccc(C(=N)N)cc1)c1cccnc1)c1ccccc1)C(N)=O` (mixture of isomers) [Example 66, 2-(S)-{2-(S)-[3-(4-Carbamimidoyl-phenyl)-2-(R,S)-pyridin-3-yl-propionyl-amino]-2-phenyl-acetylamino}-5-guanidino-pentanoic acid amide trifluoroacetic acid salt], the affinity corresponds to a Ki of 2.3 nM. In turn, `N=C(N)c1ccc(CC(C(=O)N[C@H](C(=O)NCC2CCN(C(=N)N)CC2)C2CCCCC2)c2ccccc2Br)cc1` (single isomer, unassigned; less polar) [Example 236] gave a Ki of 5 nM. Under `N=C(N)NCCCC(NC(=O)C(NC(=O)C(Cc1ccc(C(=N)N)cc1)c1cccc(F)c1)C1CCCCC1)C(N)=O` (single isomer, unassigned; less polar) [Example 131] stands 5 nM; under `CS(=O)(=O)c1cccc(C(Cc2ccc(C(=N)N)cc2)C(=O)N[C@H](C(=O)NCC2CCN(C(=N)N)CC2)C2CCCCC2)c1` (single isomer, unassigned; less polar) [Example 252], 31 nM. Turning to `CCOC(=O)C(CCCNC(=N)N)NC(=O)C(NC(=O)C(Cc1ccc(C(=N)N)cc1)C1CCCCC1)C1CCCCC1` (single isomer, unassigned; less polar) [Example 5], the inhibition constant Ki amounted to 5 nM.

For `N=C(N)c1ccc(CC(C(=O)NC(C(=O)NCC2CCN(C(=N)N)CC2)C2CCCCC2)c2cccc(F)c2)cc1` (single isomer, unassigned; less polar) [Example 161], the Ki is 8 nM.
